Organism: Rattus norvegicus
Experiment: Open TG-GATES - Regimen: Single
Format: toxicity, organism-based, Sprague-Dawley
Design: regimen Single, gender Male, age 6 weeks
Conditions: in vivo, po, 20 mg/kg, route gavage, dose level Middle; for Eos / Fbg / Hb / Ht / Lym / MCH / MCHC / MCV / Mono / Neu / PT / Plat / RBC / WBC / APTT / Bas: tissue Blood; for KIDNEY_L / KIDNEY_R / KIDNEY_TOTAL: tissue Kidney; for LIVER: tissue Liver; for ALT / AST / BUN / CRE / Cl / DBIL / GLC / IP / LDH / Na / RALB / TBIL / TC / TG / TP / gamma-GTP: tissue Plasma

Question: What does the source list for CC/C(=C(\c1ccccc1)c1ccc(OCCN(C)C)cc1)c1ccccc1 [TAMOXIFEN]?
Answer: Eos (3 h): 1%; Fbg (3 h): 267 mg/dL; Hb (3 h): 13 g/dL; Ht (3 h): 39.3%; Lym (3 h): 78%; MCH (3 h): 21 pg; MCHC (3 h): 33%; MCV (3 h): 63.8 fL; Mono (3 h): 4.2%; Neu (3 h): 16.6%; PT (3 h): 12.1 s; Plat (3 h): 116.7 x10_4/uL; RBC (3 h): 616 x10_4/ul; WBC (3 h): 103.9 x10_2/uL; KIDNEY_L (3 h): 0.8 g; KIDNEY_R (3 h): 0.8 g; KIDNEY_TOTAL (3 h): 1.6 g; LIVER (3 h): 8.4 g; ALT (3 h): 51 IU/L; AST (3 h): 81.2 IU/L; BUN (3 h): 10.4 mg/dL; CRE (3 h): 0.2 mg/dL; Cl (3 h): 106.6 meq/L; DBIL (3 h): 0.016 mg/dL; GLC (3 h): 178.8 mg/dL; IP (3 h): 9.8 mg/dL; LDH (3 h): 56 IU/L; Na (3 h): 140 meq/L; RALB (3 h): 2.6 g/dL; TBIL (3 h): 0.052 mg/dL; TC (3 h): 91.8 mg/dL; TG (3 h): 86 mg/dL; TP (3 h): 5.5 g/dL; gamma-GTP (3 h): 1.2 IU/L; TERMINAL_BW (6 h): 192.3 g; APTT (6 h): 18.2 s; Bas (6 h): 0%; Eos (6 h): 1.2%; Fbg (6 h): 269.4 mg/dL; Hb (6 h): 13.2 g/dL; Ht (6 h): 39.4%; Lym (6 h): 73.8%; MCH (6 h): 21.3 pg; MCHC (6 h): 33.5%; MCV (6 h): 63.7 fL; Mono (6 h): 4.2%; Neu (6 h): 20.4%; PT (6 h): 12.1 s; Plat (6 h): 107 x10_4/uL; RBC (6 h): 618.2 x10_4/ul; WBC (6 h): 64.9 x10_2/uL; KIDNEY_L (6 h): 0.8 g; KIDNEY_R (6 h): 0.8 g; KIDNEY_TOTAL (6 h): 1.6 g; LIVER (6 h): 7.7 g; ALT (6 h): 43.4 IU/L; AST (6 h): 82.8 IU/L; BUN (6 h): 8 mg/dL; CRE (6 h): 0.2 mg/dL; Cl (6 h): 109 meq/L; DBIL (6 h): 0.008 mg/dL; GLC (6 h): 175.8 mg/dL; IP (6 h): 10.7 mg/dL; LDH (6 h): 92.4 IU/L; Na (6 h): 141.8 meq/L; RALB (6 h): 2.6 g/dL; TBIL (6 h): 0.048 mg/dL; TC (6 h): 82.2 mg/dL; TG (6 h): 45.4 mg/dL; TP (6 h): 5.4 g/dL; gamma-GTP (6 h): 1.4 IU/L; TERMINAL_BW (9 h): 194.8 g; APTT (9 h): 16.1 s; Bas (9 h): 0%; Eos (9 h): 1%; Fbg (9 h): 252.6 mg/dL; Hb (9 h): 12.7 g/dL; Ht (9 h): 38%; Lym (9 h): 74.4%; MCH (9 h): 21.6 pg; MCHC (9 h): 33.3%; MCV (9 h): 64.9 fL; Mono (9 h): 2.8%; Neu (9 h): 21.6%; PT (9 h): 12.4 s; Plat (9 h): 114.1 x10_4/uL; RBC (9 h): 585.4 x10_4/ul; WBC (9 h): 73.4 x10_2/uL; KIDNEY_L (9 h): 0.8 g; KIDNEY_R (9 h): 0.8 g; KIDNEY_TOTAL (9 h): 1.7 g; LIVER (9 h): 7.1 g; ALT (9 h): 40 IU/L; AST (9 h): 75.8 IU/L; BUN (9 h): 8.6 mg/dL; CRE (9 h): 0.2 mg/dL; Cl (9 h): 107.6 meq/L; DBIL (9 h): 0.008 mg/dL; GLC (9 h): 178.8 mg/dL; IP (9 h): 11 mg/dL; LDH (9 h): 46 IU/L; Na (9 h): 141.4 meq/L; RALB (9 h): 2.4 g/dL; TBIL (9 h): 0.042 mg/dL; TC (9 h): 61.8 mg/dL; TG (9 h): 35.4 mg/dL; TP (9 h): 5.1 g/dL; gamma-GTP (9 h): 1 IU/L; TERMINAL_BW (24 h): 194.8 g; APTT (24 h): 16.8 s; Bas (24 h): 0%; Eos (24 h): 1.2%; Fbg (24 h): 232.8 mg/dL; Hb (24 h): 12.7 g/dL; Ht (24 h): 38.5%; Lym (24 h): 79%; MCH (24 h): 21.3 pg; MCHC (24 h): 33%; MCV (24 h): 64.5 fL; Mono (24 h): 2.4%; Neu (24 h): 17.2%; PT (24 h): 12.8 s; Plat (24 h): 117 x10_4/uL; RBC (24 h): 597.6 x10_4/ul; WBC (24 h): 83.2 x10_2/uL; KIDNEY_L (24 h): 0.9 g; KIDNEY_R (24 h): 0.9 g; KIDNEY_TOTAL (24 h): 1.8 g; LIVER (24 h): 8.7 g; ALT (24 h): 52.2 IU/L; AST (24 h): 79.2 IU/L; BUN (24 h): 13 mg/dL; CRE (24 h): 0.2 mg/dL; Cl (24 h): 109.6 meq/L; DBIL (24 h): 0.016 mg/dL; GLC (24 h): 186 mg/dL; IP (24 h): 8.3 mg/dL; LDH (24 h): 64 IU/L; Na (24 h): 143.2 meq/L; RALB (24 h): 2.6 g/dL; TBIL (24 h): 0.038 mg/dL; TC (24 h): 60.2 mg/dL; TG (24 h): 84.6 mg/dL; TP (24 h): 5.4 g/dL; gamma-GTP (24 h): 1.4 IU/L

From ChEMBL document CHEMBL3885861, “Open TG-GATES”
